Measurements: patent publication US12616200B2, “Herbicidal combinations comprising diflufenican and mesotrione” (priority 2020, dated 2026)

Experiments:
[1] = tested on: AMATU WR-2012-017-08 (resistant against HPPD-inhibitor herbicides and atrazine (PSII-inhibitor)); assay: Greenhouse pre-emergence herbicidal activity, AMATU WR-2012-017-08; format: in vivo, Amaranthus tuberculatus; details: 3 weeks, mean of 6
[2] = tested on: AMATU WR-2013-044 (resistant against HPPD-inhibitor herbicides and atrazine (PSII-inhibitor)); assay: Greenhouse pre-emergence herbicidal activity, AMATU WR-2013-044; format: in vivo, Amaranthus tuberculatus; details: 3 weeks, mean of 6

| SMILES | Activity [%] against AMATU WR-2012-017-08 ([1]; rate 75 g/ha) | Activity [%] against AMATU WR-2012-017-08 ([1]; rate 150 g/ha) | Activity [%] against AMATU WR-2013-044 ([2]; rate 75 g/ha) | Activity [%] against AMATU WR-2013-044 ([2]; rate 150 g/ha) | Activity [%] against AMATU WR-2012-017-08 ([1]; rate 52 g/ha) | Activity [%] against AMATU WR-2012-017-08 ([1]; rate 105 g/ha) | Activity [%] against AMATU WR-2013-044 ([2]; rate 52 g/ha) | Activity [%] against AMATU WR-2013-044 ([2]; rate 105 g/ha) |
| --- | --- | --- | --- | --- | --- | --- | --- | --- |
| O=C(Nc1ccc(F)cc1F)c1cccnc1Oc1cccc(C(F)(F)F)c1 [DFF, 2′,4′-difluoro-2-[3-(trifluoromethyl)phenoxy]pyridine-3-carboxanilide] | 66.7% | 86.3% | 69.2% | 80.8% | – | – | – | – |
| CS(=O)(=O)c1ccc(C(=O)C2C(=O)CCCC2=O)c([N+](=O)[O-])c1 [MST, 2-[4-(methylsulfonyl)-2-nitrobenzoyl]cyclohexane-1,3-dione] | – | – | – | – | 59.2% | 84.2% | 70.0% | 76.7% |
